Consider 27 molecules from patent publication US8952169B2 (Genentech, Inc., priority 2012, dated 2015).

The target of test [1] is T1, hNav1.7 (Homo sapiens (Human), UniProt Q15858). Kind of test: Tritiated aryl sulfonamide binding to membranes from cells expressing hNav1.7 and the β1 subunit (competitive binding). Conditions: read-out: NaV1.7 395 Memb Binding (IC50). The method in brief:
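Competitive displacement of 100 μM [3H]-labelled tritiated aryl sulfonamide from hNav1.7/β1 membranes, 18 h at room temperature in 100 mM NaCl, 20 mM Tris HCl pH 7.4. Non-specific binding defined with 1 μM unlabelled compound. Filter-bound radioactivity measured by liquid scintillation counting.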

Test [2] concerns the target T1, hNav1.7. Kind of test: Patch voltage clamp electrophysiology (PatchXpress), HEK-293 cells, inactivated state block. The test is classed as cell-based. To be noted: read-out: EP_PX 293 hNav1.7 (IC50).
Setting [3] is: membranes with hNav1.7 and β1 subunit, [3H]compound displacement, 18 h, room temperature.
Setting [4] is: HEK-293 cells, β1 coexpressed, inactivated state, holding −60 mV.

T1 sequence (Q15858 whole entry, looked up): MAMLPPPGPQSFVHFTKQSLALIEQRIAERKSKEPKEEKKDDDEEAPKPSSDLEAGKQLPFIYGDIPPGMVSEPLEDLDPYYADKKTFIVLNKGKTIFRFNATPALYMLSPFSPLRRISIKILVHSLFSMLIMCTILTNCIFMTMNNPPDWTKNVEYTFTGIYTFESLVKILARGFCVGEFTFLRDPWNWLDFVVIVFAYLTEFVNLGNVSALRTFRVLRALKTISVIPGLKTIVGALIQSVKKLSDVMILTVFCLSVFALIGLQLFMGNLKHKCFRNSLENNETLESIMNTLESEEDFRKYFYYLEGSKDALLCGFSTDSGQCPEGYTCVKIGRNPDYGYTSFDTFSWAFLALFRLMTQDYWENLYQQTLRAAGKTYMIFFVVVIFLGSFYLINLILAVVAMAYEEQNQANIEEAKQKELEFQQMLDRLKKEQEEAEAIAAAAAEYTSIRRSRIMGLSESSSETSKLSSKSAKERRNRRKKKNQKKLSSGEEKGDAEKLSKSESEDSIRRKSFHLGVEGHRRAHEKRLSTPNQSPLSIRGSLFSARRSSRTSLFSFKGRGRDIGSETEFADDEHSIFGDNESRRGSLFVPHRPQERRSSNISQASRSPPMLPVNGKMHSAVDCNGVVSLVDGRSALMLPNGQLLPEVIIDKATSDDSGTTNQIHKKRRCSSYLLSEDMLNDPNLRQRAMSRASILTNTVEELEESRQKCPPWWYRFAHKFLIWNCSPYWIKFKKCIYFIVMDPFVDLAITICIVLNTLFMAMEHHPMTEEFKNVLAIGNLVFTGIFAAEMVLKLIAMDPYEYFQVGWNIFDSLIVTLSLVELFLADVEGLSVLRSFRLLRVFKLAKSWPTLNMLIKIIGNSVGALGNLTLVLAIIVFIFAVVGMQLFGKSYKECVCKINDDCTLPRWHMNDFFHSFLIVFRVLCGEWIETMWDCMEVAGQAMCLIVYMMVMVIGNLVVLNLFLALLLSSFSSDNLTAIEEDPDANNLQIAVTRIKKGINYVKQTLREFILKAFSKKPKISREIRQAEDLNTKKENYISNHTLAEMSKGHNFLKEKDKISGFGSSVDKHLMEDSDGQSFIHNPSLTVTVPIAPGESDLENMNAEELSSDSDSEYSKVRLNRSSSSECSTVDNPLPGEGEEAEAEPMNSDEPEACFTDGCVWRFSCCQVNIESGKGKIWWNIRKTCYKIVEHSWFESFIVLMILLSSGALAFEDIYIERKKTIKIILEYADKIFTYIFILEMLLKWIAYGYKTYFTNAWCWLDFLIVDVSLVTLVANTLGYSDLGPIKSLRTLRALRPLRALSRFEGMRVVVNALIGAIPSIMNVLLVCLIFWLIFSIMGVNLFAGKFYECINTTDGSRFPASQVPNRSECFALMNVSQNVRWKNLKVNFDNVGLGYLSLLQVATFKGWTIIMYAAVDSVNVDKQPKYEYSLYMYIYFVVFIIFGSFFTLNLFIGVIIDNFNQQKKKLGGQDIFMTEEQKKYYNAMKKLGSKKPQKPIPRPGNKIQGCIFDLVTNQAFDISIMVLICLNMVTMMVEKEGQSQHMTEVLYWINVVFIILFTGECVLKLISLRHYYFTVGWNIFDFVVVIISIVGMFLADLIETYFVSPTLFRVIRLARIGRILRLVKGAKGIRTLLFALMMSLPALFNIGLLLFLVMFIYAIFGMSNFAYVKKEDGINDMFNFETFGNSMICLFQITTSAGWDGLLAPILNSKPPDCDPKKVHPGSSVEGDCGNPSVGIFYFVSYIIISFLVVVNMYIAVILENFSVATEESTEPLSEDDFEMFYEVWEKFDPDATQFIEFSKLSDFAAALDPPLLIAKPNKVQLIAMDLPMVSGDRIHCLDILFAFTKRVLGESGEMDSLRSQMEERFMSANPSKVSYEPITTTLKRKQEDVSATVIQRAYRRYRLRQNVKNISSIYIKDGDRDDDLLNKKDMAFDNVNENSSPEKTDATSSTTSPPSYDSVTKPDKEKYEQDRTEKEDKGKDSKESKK
T1 sequence (Q07699 whole entry partner, looked up): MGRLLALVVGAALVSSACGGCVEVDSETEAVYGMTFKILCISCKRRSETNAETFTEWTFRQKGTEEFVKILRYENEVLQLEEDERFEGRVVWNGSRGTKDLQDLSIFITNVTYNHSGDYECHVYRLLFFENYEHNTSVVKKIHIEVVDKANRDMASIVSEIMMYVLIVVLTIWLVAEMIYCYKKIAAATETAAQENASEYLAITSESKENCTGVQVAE

What is called IC50 is the concentration that gives 50% inhibition. Take `COCCS(=O)(=O)NC(=O)c1cc(C2CC2)c(OCC23CCCCC2C3)cc1F` (stereo not drawn): the IC50 in test [1] (setting [3]) stood at 19 nM; in test [2] (setting [4]) it was 10 nM.
The matching figures for `CCS(=O)(=O)NC(=O)c1cc(Cl)c(OCC2CCC3(CC2)CC3)cc1F` [Example 400]: 20 nM and 97 nM.
For the molecule `O=C(NS(=O)(=O)C1CC1)c1cc(C2CC2)c(O[C@@H]2C[C@@H]3CC[C@H]2C3)cc1F`, the IC50 in test [1] (setting [3]) was determined as 14 nM; in test [2] (setting [4]), 41 nM.
In the case of `COC(=O)C12CC3C[C@H](C1)C(Oc1cc(F)c(C(=O)NS(C)(=O)=O)cc1Cl)[C@@H](C3)C2` (stereo partly drawn) [Example 353, (1s,3R,4r,5S,7s)-methyl 4-(2-chloro-5-fluoro-4-((methyl-sulfonyl)carbamoyl)-phenoxy)adamantane-1-carboxylate], the IC50 in test [1] (setting [3]) was 130 nM; in test [2] (setting [4]), 240 nM.
As to `O=C(NS(=O)(=O)N1CCC1)c1cc(C2CC2)c(OCC2CCC3(CC2)CC3)cc1F`, the concentration for half-maximal inhibition (IC50) in test [1] (setting [3]) was 4 nM; in test [2] (setting [4]), 6 nM.
In the same order, the values of `CS(=O)(=O)NC(=O)c1cc(C2CC2)c(OC2CCC3(CCCCC3)CC2)cc1F` are 7 nM and 120 nM.
In the case of `CC1CCCCC1COc1cc(F)c(C(=O)NS(=O)(=O)N2CCC2)cc1C1CC1` (stereo not drawn) [Example 372], the half-inhibitory concentration (IC50) in test [1] (setting [3]) worked out at 7 nM; in test [2] (setting [4]), 11 nM.
As for `CC1(C)CCCC(Oc2cc(F)c(C(=O)NS(=O)(=O)C3CC3)cc2C2CC2)C1` (stereo not drawn), the IC50 in test [1] (setting [3]) came to 6 nM; in test [2] (setting [4]), 53 nM.
In the same order, the values of `O=C(NS(=O)(=O)C1CC1)c1cc(Cl)c(OC2CCC(Cl)(Cl)CC2)cc1F` [Example 293] are 180 nM and 140 nM.
In the same order, the values of `O=C(NS(=O)(=O)N1CC(F)C1)c1cc(C2CC2)c(OCC2CCC3CC3C2)cc1F` (stereo not drawn) are 11 nM and 520 nM.
For the molecule `CC1(C)CCC(COc2cc(F)c(C(=O)NS(=O)(=O)N3CCC3)cc2C2CC2)CC1` [Example 309], the IC50 turned out to be 6 nM in test [1] and 79 nM in test [2].
In the case of `CS(=O)(=O)NC(=O)c1cc(C2CC2(F)F)c(OCC23CC4CC(CC(C4)C2)C3)cc1F` (stereo not drawn) [Example 380], the half-inhibitory concentration (IC50) was 4 nM in test [1] (setting [3]) and 80 nM in test [2] (setting [4]).
As to `O=C(NS(=O)(=O)N1CCC1)c1cc(C2CC2)c(OCC2CC23CCCCC3)cc1F` (stereo not drawn) [Example 347], the IC50 in test [1] (setting [3]) was found to be 14 nM; in test [2] (setting [4]) it was 67 nM.
In the same order, the values of `O=C(NS(=O)(=O)N1CCC1)c1cc(C2CC2)c(OCC2CCC3(CCC3)CC2)cc1F` are 4 nM and 300 nM.
Consider `O=C(NS(=O)(=O)CCO)c1cc(C2CC2)c(OCC23CC4CC(CC(C4)C2)C3)cc1F`, for which the IC50 in test [1] (setting [3]) is 7 nM; in test [2] (setting [4]), 4.6 nM.
In the case of `CS(=O)(=O)NC(=O)c1ccc(OC[C@H]2CC[C@H](C(F)(F)F)CC2)cc1F`, the results for the 50% inhibitory concentration (IC50) in test [1] (setting [3]) and in test [2] (setting [4]) were 1500 nM and 1000 nM, respectively.
The matching figures for `O=C(NS(=O)(=O)C1CC1)c1cc(C2CC2)c(OC2CCC3(CCCCC3)CC2)cc1F`: 4 nM and 61 nM.
The matching figures for `CCc1cc(C(=O)NS(=O)(=O)N2CCC2)c(F)cc1OCC12CC3CC(CC(C3)C1)C2`: 5 nM and 3.3 nM.
Consider `[2H]C1([2H])C([2H])([2H])C([2H])([2H])C([2H])(COc2cc(F)c(C(=O)NS(=O)(=O)N3CCC3)cc2C2CC2)C([2H])([2H])C1([2H])[2H]`, for which the IC50 in test [1] (setting [3]) is 11 nM; in test [2] (setting [4]), 100 nM.
For `CC1(F)CCC(COc2cc(F)c(C(=O)NS(=O)(=O)N3CCC3)cc2C2CC2)CC1` (stereo not drawn), the figures for the half-inhibitory concentration (IC50) in test [1] (setting [3]) and in test [2] (setting [4]) were 23 nM and 67 nM, respectively.
For the molecule `O=C(NS(=O)(=O)C1CC1)c1cc(C2CC2)c(OCC2(C(F)(F)F)CCC2)cc1F` [Example 327], the half-maximal inhibitory concentration (IC50) is 3 nM in test [1] (setting [3]) and 12 nM in test [2] (setting [4]).
Consider `O=C(NS(=O)(=O)N1CCC1)c1cc(C2CC2)c(OCC2CC=C(Cl)CC2)cc1F` (stereo not drawn) [Example 376], for which the 50% inhibitory concentration (IC50) in test [1] (setting [3]) was 20 nM; in test [2] (setting [4]), 30 nM.
The matching figures for `CS(=O)(=O)NC(=O)c1cc(F)c(OCC23CC4CC(CC(C4)C2)C3)c(Cl)c1` [Example 325]: 270 nM and 2500 nM.
In the same order, the values of `O=C(NS(=O)(=O)N1CCC1)c1cc(C2CC2)c(OC2CCC(Cl)(Cl)CC2)cc1F` are 44 nM and 120 nM.
The matching figures for `O=C(NS(=O)(=O)C1CC1)c1cc(C2CC2)c(OC2CCC(F)(F)CC2)cc1F`: 43 nM and 140 nM.
`O=C(NS(=O)(=O)N1CCC1)c1cc(C2CC2)c(OCC2CCC3C(C2)C3(F)F)cc1F` (stereo not drawn): the results for the 50% inhibitory concentration (IC50) in test [1] (setting [3]) and in test [2] (setting [4]) were 15 nM and 34 nM, respectively.
With `CC1(F)CCC(COc2cc(F)c(C(=O)NS(=O)(=O)N3CCC3)cc2Cl)CC1` (stereo not drawn), the IC50 was 270 nM in test [1] (setting [3]) and 280 nM in test [2] (setting [4]).
